Measurements reported in ChEMBL document CHEMBL1156829 (Proc Natl Acad Sci U S A, 2008).

Assays:
[1] = tested on: Plasmodium falciparum; assay: NOVARTIS: Inhibition of Plasmodium falciparum 3D7 (drug-susceptible) proliferation in erythrocyte-based infection assay; type: functional, organism-based; conditions: Plasmodium falciparum, 3D7
[2] = tested on: Plasmodium falciparum; assay: NOVARTIS: Inhibition of Plasmodium falciparum W2 (drug-resistant) proliferation in erythrocyte-based infection assay; type: functional, organism-based; conditions: Plasmodium falciparum, W2; read-out: EC50
[3] = NOVARTIS: Cytotoxicity against human hepatocellular carcinoma cell line (Huh7); type: toxicity, cell-based, Huh-7; conditions: Huh7 cells (hepatocellular carcinoma cell line)

## Cc1cc(C)c2cc(CN(CCN(C)C)C(=S)NCCCN(C)C)c(=O)[nH]c2c1
[1]
  EC50: 2.01 µM
[2]
  EC50: 2.15 µM
[3]
  CC50: > 100 µM

## CC(=O)c1ccc(NC(=O)CSc2nnc3c4c(-c5ccc(F)cc5)csc4ncn23)cc1
[1]
  EC50: > 12.5 µM
[2]
  EC50: 0.0239 µM
[3]
  CC50: > 100 µM

## N#CC1=C(N)Oc2c3c(c4ccccc4c2C1c1ccc(F)cc1)C(c1ccc(F)cc1)C(C#N)=C(N)O3 (centres undefined)
[1]
  EC50: 4.09 µM
[2]
  EC50: 2.44 µM
[3]
  CC50: 21.6 µM

## COc1ccc(C2CC(=O)C3=C(C2)NC(C)=C(C(=O)OC(C)C)C3c2ccccc2F)cc1OC (centres undefined)
[1]
  EC50: 0.0347 µM
[2]
  EC50: 0.0332 µM
[3]
  CC50: 7.32 µM

## CCOC(=O)c1c[nH]c2ccc(C)cc2c1=O
[1]
  EC50: 2.7 µM
[2]
  EC50: 2.76 µM
[3]
  CC50: > 100 µM

## CCC(C)OC(=O)C1=C(C)NC2=C(C(=O)CC(c3ccc(Cl)cc3)C2)C1c1cccc(O)c1 (centres undefined)
[1]
  EC50: 1.02 µM
[2]
  EC50: 0.147 µM
[3]
  CC50: 39.6 µM

## FC(F)(F)c1cccc(NC(=S)N2CCCC2c2ccccc2Cl)c1 (centres undefined)
[1]
  EC50: 0.187 µM
[2]
  EC50: 0.185 µM
[3]
  CC50: > 100 µM

## Nc1ccc2[nH]c(/C=C/c3ccc(Cl)cc3)nc2c1
[1]
  EC50: > 1.25 µM
[2]
  EC50: 2.08 µM
[3]
  CC50: > 10 µM

## Cc1ccc(NC(=O)c2nc[nH]c2C(=O)Nc2nc3ccccc3[nH]2)c(C)c1
[1]
  EC50: 7.29 µM
[2]
  EC50: > 12.5 µM
[3]
  CC50: > 100 µM

## COc1ccc(-n2c(=S)[nH]c3cc(C(=O)Nc4cccc(C)c4)ccc3c2=O)cc1OC
[1]
  EC50: > 1.04 µM
[2]
  EC50: > 1.25 µM
[3]
  CC50: > 10 µM

## Cc1ccc(-c2cc(-c3ccccc3)c(C#N)c(SCC(O)C[S+]([O-])Cc3ccccc3)n2)cc1 (centres undefined)
[1]
  EC50: 7.17 µM
[2]
  EC50: 1.65 µM
[3]
  CC50: 39.9 µM

## Cc1cc(C)nc(Nc2nc(C)c3cc(C)c(C)cc3n2)n1
[1]
  EC50: 1.32 µM
[2]
  EC50: 0.829 µM
[3]
  CC50: > 100 µM

## COC(=O)c1ccc(N2C(=O)C3C(C2=O)C2(c4ccccc4)C(=O)C3(c3ccccc3)C(c3ccc(OC)cc3)=C2c2ccc(OC)cc2)cc1 (centres undefined)
[1]
  EC50: 4.83 µM
[2]
  EC50: > 12.5 µM
[3]
  CC50: > 100 µM

## COCCNC(=S)N1CCN(S(=O)(=O)c2ccc([N+](=O)[O-])cc2)CC1
[1]
  EC50: 0.176 µM
[2]
  EC50: 0.101 µM
[3]
  CC50: > 100 µM

## OCCNc1nc(Nc2cccc(O)c2)nc2ccccc12
[1]
  EC50: 0.203 µM
[2]
  EC50: 1.01 µM
[3]
  CC50: 69.5 µM

## COc1ccccc1NC(=O)C(=O)NCCc1ccc(OC)c(OC)c1
[1]
  EC50: > 10.3 µM
[2]
  EC50: > 10.8 µM
[3]
  CC50: > 100 µM

## Cc1ccc(C(C(=O)NCc2ccccc2)N(C(=O)c2snc(C(N)=O)c2N)c2ccccc2)o1 (centres undefined)
[1]
  EC50: 1.23 µM
[2]
  EC50: > 0.755 µM
[3]
  CC50: > 10 µM

## CCOC(=O)c1[nH]nc(C(=O)c2ccccc2)c1-c1ccccc1
[1]
  EC50: > 0.393 µM
[2]
  EC50: > 1.35 µM
[3]
  CC50: > 10 µM

## CC(=O)N(/C=C1/Sc2ccccc2C1=O)c1ccc(C)cc1
[1]
  EC50: > 1.25 µM
[2]
  EC50: 2.41 µM
[3]
  CC50: > 10 µM

## O=C1CC(c2ccc(O)cc2)C2=C(CC(c3ccccc3Cl)CC2=O)N1 (centres undefined)
[1]
  EC50: 0.672 µM
[2]
  EC50: 0.391 µM
[3]
  CC50: > 100 µM

## Cc1ccc(NC(=O)c2ccc(NCCCN3CCCCCC3)c([N+](=O)[O-])c2)cc1F
[1]
  EC50: 0.0941 µM
[2]
  EC50: 0.371 µM
[3]
  CC50: 16.9 µM

## O=C(NCCCCNc1ccnc2cc(Cl)ccc12)c1cc(C(F)(F)F)cc(C(F)(F)F)c1
[1]
  EC50: 0.642 µM
[2]
  EC50: 0.766 µM
[3]
  CC50: > 10 µM

## CCCCCCN(C(=O)COc1ccccc1)C(CC)c1nc2ccccc2c(=O)n1-c1cccc(Cl)c1 (centres undefined)
[1]
  EC50: 2.74 µM
[2]
  EC50: 4.01 µM
[3]
  CC50: > 100 µM

## O=c1nc(/C=C/c2ccc(Cl)cc2)oc2ccccc12
[1]
  EC50: 1.85 µM
[2]
  EC50: > 1.66 µM
[3]
  CC50: > 10 µM

## CCOc1ccc(S(=O)(=O)N=C2C=C(Nc3ccc(O)cc3)C(=O)c3ccccc32)cc1
[1]
  EC50: 0.158 µM
[2]
  EC50: 0.135 µM
[3]
  CC50: 7.05 µM

## O=C(CSc1ccc2nnc(-c3cccc(F)c3)n2n1)Nc1ccc2c(c1)OCO2
[1]
  EC50: 2.11 µM
[2]
  EC50: 0.819 µM
[3]
  CC50: > 100 µM

## COc1ccc(OC)c(-c2ccc(O)c(CNCCc3ccccc3F)c2)c1
[1]
  EC50: 1.14 µM
[2]
  EC50: 0.79 µM
[3]
  CC50: > 10 µM

## O[C@H]1[C@H]2c3cc4c(cc3CN3CCC(=C[C@@H]1O)[C@H]23)OCO4 [LYCORINE]
[1]
  EC50: 0.607 µM
[2]
  EC50: 0.156 µM
[3]
  CC50: 66.1 µM

## O=C1C=CC(=O)N1c1ccc(Sc2ccc(N3C(=O)C=CC3=O)cc2)cc1
[1]
  EC50: > 0.814 µM
[2]
  EC50: > 1.25 µM
[3]
  CC50: > 10 µM

## O=[N+]([O-])c1cccc(CNc2ccc(F)c(Cl)c2)c1
[1]
  EC50: > 12.5 µM
[2]
  EC50: 8.05 µM
[3]
  CC50: > 95.6 µM

## CC(=O)Nc1ccc2c(c1)CCCC2
[1]
  EC50: 1.13 µM
[2]
  EC50: 0.191 µM
[3]
  CC50: > 10 µM

## COc1ccc(C=NNc2nc(Nc3ccc([N+](=O)[O-])cc3)nc(N3CCN(C)CC3)n2)cc1OC
[1]
  EC50: 1.82 µM
[2]
  EC50: 0.444 µM
[3]
  CC50: 15.2 µM

## CC(=O)N(C1=C(N2CCCCCC2)C(=O)c2ccccc2C1=O)C1CCCCC1
[1]
  EC50: 0.137 µM
[2]
  EC50: 0.0939 µM
[3]
  CC50: 30.2 µM
